# Measurements from patent US20020164581A1 (priority 2001, published 2002).
# Values joined by “and” are separate entries in the source; they are usually repeats but may differ in a detail not shown here. Identical values can stand only once. Like-named read-outs stand apart in the source and are kept apart here.
# How the values were obtained:
# [1] = test system: bovine aortic endothelial cells (bAECs)
# Experimental: Primary cultures of bAECs were established from five female beef cattle (ranging in age from 1 to 2 years old) according to the method of Fenselau and Mello (Cancer Res. 36:3269-3273, 1976). Pooled cells were routinely maintained under humidified air (5% CO2) at 37° C. in Dulbecco's modified medium supplemented with 10% fetal bovine serum (FBS). Cells from the second to the fifth passages were used in these studies.
# In the studies in which male and female bAECs were compared, batches of bAECs were independently established from 5 female and 4 male beef cattle (ranging in age from 1 to 2 years old) according to the method of Fenselau and Mello (Cancer Res. 36:3269-3273, 1976). Otherwise, the cells were treated and assessed as described in the paragraph above.
# Prior to E2 pretreatment, cells were grown in phenol red-free DMEM supplemented with 10% dextran/charcoal-stripped FBS for at least 1 passage (3-4 days). Phenol red-free Dulbecco's modified medium was used to avoid potential estrogenic interference. Serum steroid deprivation was conducted according to the conditions described by Yeh et al. (Proc. Natl. Acad. Sci. USA 95:5527-5532, 1998). The E2 level in the stripped serum was assayed using an [^125I] 17β-estradiol radioimmunoassay kit (TKE21, Diagnostic Products Corporation, Los Angeles, Calif.). […] The cells grown in E2-free environments were plated onto Falcon 24-well Primariae™ plates at a density of 5×10^4 cells/well. E2 in dimethylsulfoxide (DMSO) was added to each well at final concentrations ranging from 1 nM to 10 μM 3 hours after plating, and the cells were then incubated for 24 hours (a duration commonly used for the studies of the genomic effects of E2) at 37° C. Control cells were treated with a corresponding amount of DMSO (a final concentration 0.05%).
# Prior to oxidative challenge, E2-containing media was removed, and the cells were rinsed with PBS twice and re-fed with serum-free fresh medium. Subsequently, paraquat was added to the cells at the indicated doses (0.1-2.0 mM) for 3 hours. The oxidative challenge was terminated by aspiration of the oxidant-containing medium and quickly rinsing the cells twice with PBS. The cells were allowed to recover for 48 hours in medium supplemented with 10% regular FBS to exclude the possibility that different concentrations of E2 interfere with the cellular recovery processes.
# Cell survival after oxidative challenge was assessed with a 3-(4,5-dimethylthiazol-2-yl) 2,5 diphenyltetrazolium bromide (MTT) assay in which the mitochondrial dehydrogenase activity of viable cells reduces MTT to a blue formazan product (Carmichael et al. Cancer Res. 47:936-942, 1987). Our prior conditions were employed (Si et al., Endocrine in press, 2001). Briefly, cells were treated with 1/10 volume of MTT solution (5 mg/ml in PBS) and incubated at 37° C. for 2 hours. The supernatant was then removed, and 600 μl of lysis buffer (50% dimethyl formamide, 5% sodium dodecyl sulphate, 0.35 M acetic acid, 50 mM HCl) was added to each well. Following cell lysis, the absorbency was measured at 570 nm and used as an indicator of relative cell survival. The surviving fraction was calculated as compared to the cells without paraquat challenge.
# Two experimental groups were created. In the first group, E2 was added only during the 24-hour pretreatment period. In the second group, E2 was added only during the 3-hour paraquat exposure.
# [2] = test system: glutathione reductase (GR); assay: GR activity in cell lysate (NADPH oxidation); assay type: cell-based, bovine
# Experimental: Cells pretreated with different concentrations of E2 for 24 hours were harvested in a solution containing 50 mM Tris-HCl (pH 7.4), 1 mM EDTA, 2 μg/ml pepstatin A, 10 μg/ml benzamidine, and 10 μg/ml trypsin inhibitor. The cells were then lysed on ice by sonication at a setting of 50 mW, with 3×15 set cycles using a Cole-Parmer Ultrasonic Homogenizer (Chicago, Ill.). Protein concentrations in the samples were determined by the Bradford method with bovine serum albumin as a standard (Bradford, Anal. Biochem. 72:248-254, 1976).
# GR activity was determined by a modified method of Carlberg and Mannervik (Methods Enzymol. 11 3:484-490, 1985). One unit of GR activity is defined as the amount of protein that oxidizes 1 nmole of β-NADPH per minute. Briefly, 50 μl of 2 mM β-NADPH in 10 mM Tris buffer (pH 7.0) was added to a cuvette containing 50 μl of 20 mM glutathione (oxidized ofrm, GSSG) in phosphate buffer (0.1 M NaH2PO4, 0.1 M Na2HPO4, 0.1 mM EDTA, pH 7.0) and 800 μl of phosphate buffer. Following the addition of cell homogenate (about 100 μg protein/100 μl) the final mixture was measured at 340 nm for 3 minutes. The molar extinction coefficient of 6.22 mM/cm was used to determine the activity of […].
# female and male bAECs = assay type: cell-based, bovine; settings: for mean DCFH fluorescence: separate set of donors, 45-minute paraquat exposure
# Experimental: For flow cytometric analysis (after E2 treatment), female and male bAECs were trypsinized, rinsed, and resuspended in PBS containing 2% BSA at a density of 5×10^5 cells/ml. The cells were loaded with dichlorofluorescin diacetate (Molecular Probes, Eugene, Oreg.) (dissolved in DMSO) at 5 μg/ml for 15 minutes followed by paraquat insult (1 mM) at room temperature in the dark. At the designated times, aliquots were withdrawn, placed on ice, and the fluorescence of oxidized DCFH was analyzed by a FACSCalibur™ flow cytometer (Becton-Dickinson, San Jose, Calif.) equipped with an argon laser. A collection filter for the green emission of oxidized DCFH (530/30 nm) was used. Fluorescence signal was collected in log mode and analyzed using Cellquest™ software (Becton-Dickinson).
# SOD can dismutate the superoxide radical to hydrogen peroxide, which is subsequently detoxified by CAT or GPX. […] This theory was tested by comparing the level of ROS in female and male bAECs during subsequent oxidant exposure. Following E2 treatment for 24 hours, cells were loaded with dichlorofluorescein diacetate, which penetrates their plasma membranes and is converted to 2′,7′-dichlorofluorescein (DCFH) by intracellular esterases. This nonfluorescent compound, once oxidized by ROS such as hydrogen peroxide, turns to a highly fluorescent derivative.
# [3] = 24 h pretreatment, paraquat challenge
smiles,measurement,setting,value
"C[C@]12CC[C@@H]3c4ccc(O)cc4CC[C@H]3[C@@H]1CC[C@@H]2O [E2, 17β-estradiol]",E2 dosage that defended cells when present during oxidative challenge,[1],10 µM
same,oxidant protection with E2 present during paraquat exposure,[1],mild but notable oxidant protection
same,oxidative protection after brief preincubation,[1],not effective in providing oxidative protection
same,oxidative resistance (MTT survival),[1],marked augmentation of oxidative resistance
same,protection against subsequent oxidative challenge,[1],acquired significant protection against subsequent oxidative challenge
same,resistance to paraquat toxicity (cell survival),[1],enhanced resistance to the toxic effect of paraquat
same,E2 concentration of optimal protection,[1]; [3],1 to 10 nM
same,E2 dosage at which protection gradually declined in magnitude,[1]; [3],about 1 μM
same,protection after brief estrogenic exposure,"[1]; E2 30 minutes only, washed, male or female endothelial cells",No protection by E2
same,LD50 of paraquat toxicity in E2-pretreated cells,[1]; cells pretreated with 1 nM E2 for 24 h,about 1 mM
same,magnitude of protection at elevated E2,"[1]; female bAECs, E2 0.1-10 μM, P<0.05 vs. 1 nM",gradually decreased
same,protection against paraquat challenge,"[1]; male bAECs, E2 pretreatment at any tested concentration",no protection was seen
same,GR activity elevation relative to untreated cells,[2]; 1 nM E2 pretreatment (Example 8),~3 fold
same,GR activity increase,"[2]; female bAECs, 24 h 1 nM E2 (Example 12)",~2 fold
same,mean fluorescence intensity of oxidized DCFH,female and male bAECs,795 and 1323
same,"basal level of DCFH oxidation, female vs male","female and male bAECs; E2-pretreated cells, before paraquat",similar
same,mean DCFH fluorescence,female and male bAECs; female bAECs,1002
same,mean DCFH fluorescence,female and male bAECs; male bAECs,1581
